“And” between values parts separate entries of the source, which are not always exact repeats. Equal values may be shown once. Read-outs that look alike come from different tables or passages of the source.
Columns and labels:
Assay type in all cases: cell-based
Fusarium culmorum = Fusarium culmorum / liquid culture; conditions: Fusarium culmorum, read-out: observed % activity
Protocol: Mycelia fragments or conidia suspensions of a fungus, prepared either freshly from liquid cultures of the fungus or from cryogenic storage, were directly mixed into nutrient broth. DMSO solutions of the test compound (max. 10 mg/ml) was diluted with 0.025% Tween20 by factor 50 and 10 μl of this solution was pipetted into a microtiter plate (96-well format). […] The test plates were incubated in the dark at 24° C. and 96% rh. The inhibition of fungal growth was determined photometrically and visually after 2-4 days, depending on the pathosystem, and percent antifungal activity relative to the untreated check was calculated.
(§1) Conidia of the fungus from cryogenic storage were directly mixed into nutrient broth (PDB potato dextrose broth). After placing a (DMSO) solution of test compound into a microtiter plate (96-well format), the nutrient broth containing the fungal spores was added.

Gaeumannomyces graminis = Gaeumannomyces graminis / liquid culture; conditions: for inhibition at 0.2 ppm: 1.001 0.2000 ppm; for inhibition at 0.1 ppm: 1.001 0.1000 ppm
Protocol: (§2) Mycelia fragments or conidia suspensions of a fungus, prepared either freshly from liquid cultures of the fungus or from cryogenic storage, were directly mixed into nutrient broth. DMSO solutions of the test compound (max. 10 mg/ml) was diluted with 0.025% Tween20 by factor 50 and 10 μl of this solution was pipetted into a microtiter plate (96-well format). The nutrient broth containing the fungal spores/mycelia fragments was then added to give an end concentration of the tested compound. The test plates were incubated in the dark at 24° C. and 96% rh. The inhibition of fungal growth was determined photometrically and visually after 2-4 days, depending on the pathosystem, and percent antifungal activity relative to the untreated check was calculated.
Mycelial fragments of the fungus from cryogenic storage were directly mixed into nutrient broth (PDB potato dextrose broth). After placing a (DMSO) solution of test compound into a microtiter plate (96-well format), the nutrient broth containing the fungal spores was added.

[1] = tested on: Mycosphaerella graminicola (Septoria tritici); experiment: Mycosphaerella graminicola (Septoria tritici) / liquid culture; conditions: Zymoseptoria tritici, read-out: observed % activity; for inhibition at 0.0031 ppm: 1.001 0.0031 ppm; for inhibition at 0.0016 ppm: 1.001 0.0016 ppm; for inhibition at 0.0008 ppm: 1.001 0.0008 ppm
Protocol: as §2, §1

[2] = tested on: Thanatephorus cucumeris (Rhizoctonia solani); experiment: Thanatephorus cucumeris (Rhizoctonia solani) / liquid culture; conditions: for inhibition at 0.1 ppm: 1.001 0.1000 ppm; for inhibition at 0.05 ppm: 1.001 0.0500 ppm
Protocol: as §2
Mycelia fragments of a newly grown liquid culture of the fungus were directly mixed into nutrient broth (PDB potato dextrose broth). After placing a (DMSO) solution of the test compounds into a microtiter plate (96-well format), the nutrient broth containing the fungal material was added.

[3] = Gaeumannomyces graminis, B4.1, read-out: observed % activity
[4] = Gaeumannomyces graminis, B5.1, read-out: observed % activity
[5] = Gaeumannomyces graminis, B9.1, read-out: observed % activity
[6] = Thanatephorus cucumeris, B5.5, read-out: observed % activity

CON(C(=O)c1cn(C)nc1C(F)F)C(C)Cc1c(Cl)cc(Cl)cc1Cl (stereo not shown) [Compound 1.001, 3-(difluoromethyl)-N-methoxy-1-methyl-N-[1-methyl-2-(2,4,6-trichlorophenyl)ethyl]pyrazole-4-carboxamide]
inhibition at 0.1 ppm (Fusarium culmorum; B3.3, 1.001 0.1000 ppm): 55% | inhibition at 0.2 ppm (Fusarium culmorum; B3.3, 1.001 0.2000 ppm): 59% | inhibition at 0.025 ppm (Fusarium culmorum; B5.3, 1.001 0.0250 ppm): 9% | inhibition at 0.05 ppm (Fusarium culmorum; B5.3, 1.001 0.0500 ppm): 39% | observed % activity (Gaeumannomyces graminis; 1.001 0.0063 ppm): 10% | observed % activity (Gaeumannomyces graminis; 1.001 0.0125 ppm): 1% | observed % activity (Gaeumannomyces graminis; 1.001 0.0250 ppm): 6% | observed % activity (Gaeumannomyces graminis; 1.001 0.0500 ppm): 3% and 1% and 9% | inhibition at 0.0016 ppm (Gaeumannomyces graminis; Gaeumannomyces graminis, 1.001 0.0016 ppm, read-out: observed % activity): 0% | inhibition at 0.2 ppm (Gaeumannomyces graminis; Gaeumannomyces graminis, B1.1, read-out: observed % activity): 7% | inhibition at 0.0125 ppm (Gaeumannomyces graminis; Gaeumannomyces graminis, B2.1, 1.001 0.0125 ppm, read-out: observed % activity): 0% | inhibition at 0.025 ppm (Gaeumannomyces graminis; Gaeumannomyces graminis, B2.1, 1.001 0.0250 ppm, read-out: observed % activity): 4% | inhibition at 0.05 ppm (Gaeumannomyces graminis; Gaeumannomyces graminis, B2.1, 1.001 0.0500 ppm, read-out: observed % activity): 0% | inhibition at 0.1 ppm (Gaeumannomyces graminis; Gaeumannomyces graminis, B2.1, read-out: observed % activity): 0% | inhibition at 0.0031 ppm (Gaeumannomyces graminis; Gaeumannomyces graminis, B3.1, 1.001 0.0031 ppm, read-out: observed % activity): 0% | inhibition at 0.0063 ppm (Gaeumannomyces graminis; Gaeumannomyces graminis, B3.1, 1.001 0.0063 ppm, read-out: observed % activity): 0% | inhibition at 0.0125 ppm (Gaeumannomyces graminis; Gaeumannomyces graminis, B3.1, 1.001 0.0125 ppm, read-out: observed % activity): 8% | inhibition at 0.025 ppm (Gaeumannomyces graminis; Gaeumannomyces graminis, B3.1, 1.001 0.0250 ppm, read-out: observed % activity): 0% | inhibition at 0.05 ppm (Gaeumannomyces graminis; Gaeumannomyces graminis, B3.1, 1.001 0.0500 ppm, read-out: observed % activity): 0% | inhibition at 0.0125 ppm (Gaeumannomyces graminis; Gaeumannomyces graminis, B4.1, 1.001 0.0125 ppm, read-out: observed % activity): 0% | inhibition at 0.025 ppm (Gaeumannomyces graminis; Gaeumannomyces graminis, B4.1, 1.001 0.0250 ppm, read-out: observed % activity): 0% | inhibition at 0.05 ppm (Gaeumannomyces graminis; Gaeumannomyces graminis, B4.1, 1.001 0.0500 ppm, read-out: observed % activity): 0% | inhibition at 0.1 ppm (Gaeumannomyces graminis; [3]): 0% | inhibition at 0.2 ppm (Gaeumannomyces graminis; [3]): 12% | inhibition at 0.025 ppm (Gaeumannomyces graminis; Gaeumannomyces graminis, B5.1, 1.001 0.0250 ppm, read-out: observed % activity): 0% | inhibition at 0.05 ppm (Gaeumannomyces graminis; Gaeumannomyces graminis, B5.1, 1.001 0.0500 ppm, read-out: observed % activity): 2% | inhibition at 0.1 ppm (Gaeumannomyces graminis; [4]): 0% | inhibition at 0.2 ppm (Gaeumannomyces graminis; [4]): 0% | inhibition at 0.0063 ppm (Gaeumannomyces graminis; Gaeumannomyces graminis, B6.1, 1.001 0.0063 ppm, read-out: observed % activity): 0% | inhibition at 0.025 ppm (Gaeumannomyces graminis; Gaeumannomyces graminis, B6.1, 1.001 0.0250 ppm, read-out: observed % activity): 0% | inhibition at 0.1 ppm (Gaeumannomyces graminis; Gaeumannomyces graminis, B6.1, read-out: observed % activity): 0% | inhibition at 0.0125 ppm (Gaeumannomyces graminis; Gaeumannomyces graminis, B9.1, 1.001 0.0125 ppm, read-out: observed % activity): 0% | inhibition at 0.025 ppm (Gaeumannomyces graminis; Gaeumannomyces graminis, B9.1, 1.001 0.0250 ppm, read-out: observed % activity): 0% | inhibition at 0.05 ppm (Gaeumannomyces graminis; Gaeumannomyces graminis, B9.1, 1.001 0.0500 ppm, read-out: observed % activity): 0% | inhibition at 0.1 ppm (Gaeumannomyces graminis; [5]): 0% | inhibition at 0.2 ppm (Gaeumannomyces graminis; [5]): 0% | inhibition at 0.0004 ppm ([1]; 1.001 0.0004 ppm): 9% | inhibition at 0.0031 ppm [1]: 88% | inhibition at 0.0016 ppm ([1]; B1.5): 52% | inhibition at 0.0016 ppm ([1]; B3.5): 42% | inhibition at 0.0031 ppm ([1]; B3.5): 83% | inhibition at 0.0008 ppm ([1]; B5.6): 27% | inhibition at 0.0016 ppm ([1]; B5.6): 45% | inhibition at 0.0031 ppm ([1]; B5.6): 82% | inhibition at 0.0008 ppm ([1]; B6.4): 11% | inhibition at 0.0016 ppm ([1]; B6.4): 53% | inhibition at 0.0031 ppm ([1]; B6.4): 89% | observed % activity ([2]; 1.001 0.0250 ppm): 8% | inhibition at 0.0031 ppm ([2]; Thanatephorus cucumeris, 1.001 0.0031 ppm, read-out: observed % activity): 5% | inhibition at 0.0063 ppm ([2]; Thanatephorus cucumeris, 1.001 0.0063 ppm, read-out: observed % activity): 0% | inhibition at 0.0125 ppm ([2]; Thanatephorus cucumeris, B1.4, 1.001 0.0125 ppm, read-out: observed % activity): 0% | inhibition at 0.025 ppm ([2]; Thanatephorus cucumeris, B1.4, 1.001 0.0250 ppm, read-out: observed % activity): 6% | inhibition at 0.1 ppm ([2]; Thanatephorus cucumeris, B1.4, read-out: observed % activity): 0% | inhibition at 0.025 ppm ([2]; Thanatephorus cucumeris, B5.5, 1.001 0.0250 ppm, read-out: observed % activity): 13% | inhibition at 0.05 ppm [2, 6]: 1% | inhibition at 0.1 ppm [2, 6]: 17% | inhibition at 0.05 ppm ([2]; Thanatephorus cucumeris, B9.3, read-out: observed % activity): 0% | inhibition at 0.2 ppm ([2]; Thanatephorus cucumeris, B9.3, 1.001 0.2000 ppm, read-out: observed % activity): 6%

— US10588315B2, “Fungicidal compositions” (Syngenta Participations AG, priority 2012, dated 2020)
